Measured values published in patent US8536180B2, “Pyrimidine inhibitors of kinase activity” (AbbVie Inc., priority 2009, dated 2013).
pIC50: −log10 of the molar value.

Molecular target: T1, C-terminal GST-tagged, recombinant, human IGF-1R, amino acids 954-1367 (Homo sapiens, UniProt P08069)
T1 construct: human IGF-1R, amino acids 954-1367 expressed by baculovirus in Sf21 cells; GST (C); purchased Cell Signaling Technology; host or cells: baculovirus in Sf21 cells
Assay: IGF-1R homogenous time-resolved fluorescence (HTRF) in vitro kinase assay
Format: biochemical
Settings: IGF-1R kinase, ATP 50 μM final, biotinylated peptide substrate 0.5 μM, 60 minutes at room temperature
Method: IGF-1R kinase activity was assayed by a homogenous time-resolved fluorescence (HTRF) in vitro kinase assay (Mathis, G., HTRF(R) Technology. J Biomol Screen, 1999. 4(6): p. 309-314). Specifically, 10 μL C-terminal GST-tagged, recombinant, human IGF-1R, amino acids 954-1367 expressed by baculovirus in Sf21 cells (Cell Signaling Technology) was mixed with 10 μL inhibitor (various concentrations, 2% final DMSO) and 10 μL of ATP (50 μM final concentration) in reaction buffer (50 mM HEPES, pH 7.5, 10 mM MgCl2, 2 mM MnCl2, 0.1% BSA and 1 mM DTT, 40 μL final volume). The reaction was initiated by addition of 10 μL of biotinylated peptide substrate (Biotin-Ahx-[…], 0.5 μM final concentration) in a black 384-well plate (Packard). After 60 minutes incubation at room temperature, the reaction was quenched by addition of 60 μL stop/revelation buffer to give 30 mM EDTA, 1 μg/mL streptavidin-APC (Prozyme), 50 ng/mL anti-phosphotyrosine mAb PT66-K Europium Cryptate, 30 mM HEPES, pH 7.5, 120 mM KF, 0.005% Tween-20, 0.05% BSA). The quenched reaction was allowed to stand at room temperature for 1 hour and then read in a time-resolved fluorescence detector (Envision, Perkin Elmer) at 615 nm and 665 nm simultaneously. The ratio between the signal of 615 nm and 665 nm was used in the calculation of the IC50.

T1 sequence (P08069 954-1367): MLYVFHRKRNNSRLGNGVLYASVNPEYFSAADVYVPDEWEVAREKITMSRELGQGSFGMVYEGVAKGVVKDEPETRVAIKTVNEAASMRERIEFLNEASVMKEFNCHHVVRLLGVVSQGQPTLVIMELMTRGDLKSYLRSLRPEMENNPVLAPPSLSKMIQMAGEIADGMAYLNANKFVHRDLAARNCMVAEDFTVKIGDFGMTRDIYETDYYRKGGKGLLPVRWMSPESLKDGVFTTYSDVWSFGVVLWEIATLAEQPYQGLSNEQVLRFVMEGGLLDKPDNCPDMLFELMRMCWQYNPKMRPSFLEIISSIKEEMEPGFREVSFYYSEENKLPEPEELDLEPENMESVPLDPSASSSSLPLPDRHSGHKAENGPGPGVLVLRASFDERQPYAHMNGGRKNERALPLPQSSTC

Row | pIC50 | Compound
1 | 6.30 to 7.00 | O=c1[nH]cccc1Nc1nccc(-c2c(-c3ccc4[nH]c(Cc5ccccc5)nc4c3)nc3ccccn23)n1 [Example 29, 3-({4-[2-(2-benzyl-1H-benzimidazol-5-yl)imidazo[1,2-a]pyridin-3-yl]pyrimidin-2-yl}amino)pyridin-2(1H)-one]
2 | > 8.00 | COc1cc(N2CCC(N(C)C)CC2)ccc1Nc1nccc(-c2c(-c3ccc4nc(Cc5ccccc5)[nH]c4c3)nc3sccn23)n1 [Example 30, 4-[6-(2-benzyl-1H-benzimidazol-6-yl)imidazo[2,1-b][1,3]thiazol-5-yl]-N-{4-[4-(dimethylamino)piperidin-1-yl]-2-methoxyphenyl}pyrimidin-2-amine]
3 | 7.30 to 8.00 | COc1cc(N(C)C)ccc1Nc1nccc(-c2c(-c3ccc4nc(Cc5ccccc5)[nH]c4c3)nc3sccn23)n1 [Example 31, N^1-{4-[6-(2-benzyl-1H-benzimidazol-6-yl)imidazo[2,1-b][1,3]thiazol-5-yl]pyrimidin-2-yl}-2-methoxy-N^4,N^4-dimethylbenzene-1,4-diamine]
4 | 6.30 to 7.00 | COc1cc(Cl)ccc1Nc1nccc(-c2c(-c3ccc4nc(Cc5ccccc5)[nH]c4c3)nc3ccccn23)n1 [Example 32, 4-[2-(2-benzyl-1H-benzimidazol-6-yl)imidazo[1,2-a]pyridin-3-yl]-N-(4-chloro-2-methoxyphenyl)pyrimidin-2-amine]
5 | 7.30 to 8.00 | COc1cc(N(C)C)ccc1Nc1nccc(-c2c(-c3ccc4nc(Cc5ccccc5Cl)[nH]c4c3)nc3sccn23)n1 [Example 33, N^1-(4-{6-[2-(2-chlorobenzyl)-1H-benzimidazol-6-yl]imidazo[2,1-b][1,3]thiazol-5-yl}pyrimidin-2-yl)-2-methoxy-N^4,N^4-dimethylbenzene-1,4-diamine]
6 | 7.30 to 8.00 | COc1ccccc1Cc1nc2ccc(-c3nc4sccn4c3-c3ccnc(Nc4ccc(N(C)C)cc4OC)n3)cc2[nH]1 [Example 34, 2-methoxy-N^1-(4-{6-[2-(2-methoxybenzyl)-1H-benzimidazol-6-yl]imidazo[2,1-b][1,3]thiazol-5-yl}pyrimidin-2-yl)-N^4,N^4-dimethylbenzene-1,4-diamine]
7 | 7.30 to 8.00 | OCCn1cc(Nc2nccc(-c3c(-c4ccc5[nH]c(-c6ccccc6)nc5c4)nc4ccccn34)n2)cn1 [Example 36, 2-[4-({4-[2(2-phenyl-1H-benzimidazol-5-yl)imidazo[1,2-a]pyridin-3-yl]pyrimidin-2-yl}amino)-1H-pyrazol-1-yl]ethanol]
8 | 7.30 to 8.00 | OCCn1cc(Nc2nccc(-c3c(-c4ccc5[nH]c(Cc6ccccc6)nc5c4)nc4ccccn34)n2)cn1 [Example 37, 2-[4-({4-[2(2-benzyl-1H-benzimidazol-5-yl)imidazo[1,2-a]pyridin-3-yl]pyrimidin-2-yl}amino)-1H-pyrazol-1-yl]ethanol]
9 | 6.30 to 7.00 | Fc1ccc(Nc2nccc(-c3c(-c4ccc5nc(-c6ccccc6)[nH]c5c4)nc4ccccn34)n2)cc1 [Example 38, N-(4-fluorophenyl)-4-[2-(2-phenyl-1H-benzimidazol-6-yl)imidazo[1,2-a]pyridin-3-yl]pyrimidin-2-amine]
10 | 7.00 to 7.29 | Fc1ccc(Nc2nccc(-c3c(-c4ccc5[nH]c(Cc6ccccc6)nc5c4)nc4ccccn34)n2)cc1 [Example 39, 4-[2-(2-benzyl-1H-benzimidazol-5-yl)imidazo[1,2-a]pyridin-3-yl]-N-(4-fluorophenyl)pyrimidin-2-amine]
11 | < 6.30 | Fc1ccc(Nc2nccc(-c3c(-c4ccc5nc(-c6ccccc6)[nH]c5c4)nc4ccccn34)n2)c(F)c1 [Example 40, N-(2,4-difluorophenyl)-4-[2-(2-phenyl-1H-benzimidazol-6-yl)imidazo[1,2-a]pyridin-3-yl]pyrimidin-2-amine]
12 | 6.30 to 7.00 | Fc1ccc(Nc2nccc(-c3c(-c4ccc5[nH]c(Cc6ccccc6)nc5c4)nc4ccccn34)n2)c(F)c1 [Example 41, 4-[2-(2-benzyl-1H-benzimidazol-5-yl)imidazo[1,2-a]pyridin-3-yl]-N-(2,4-difluorophenyl)pyrimidin-2-amine]
13 | < 6.30 | FC(F)(F)c1ccccc1Cc1nc2ccc(-c3nc4sccn4c3-c3ccnc(Nc4ccccc4CN4CCCC4)n3)cc2[nH]1 [Example 42, N-[2-(pyrrolidin-1-ylmethyl)phenyl]-4-(6-{2-[2-(trifluoromethyl)benzyl]-1H-benzimidazol-6-yl}imidazo[2,1-b][1,3]thiazol-5-yl)pyrimidin-2-amine]
14 | 7.30 to 8.00 | COc1ccc(S(C)(=O)=O)cc1Nc1nccc(-c2c(-c3ccc4nc(Cc5ccccc5)[nH]c4c3)nc3ccccn23)n1 [Example 43, 4-[2-(2-benzyl-1H-benzimidazol-6-yl)imidazo[1,2-a]pyridin-3-yl]-N-[2-methoxy-5-(methylsulfonyl)phenyl]pyrimidin-2-amine]
15 | < 6.30 | Cn1cc(Nc2nccc(-c3c(-c4ccc5[nH]c(-c6ccccc6)nc5c4)nc4ccccn34)n2)cn1 [Example 44, N-(1-methyl-1H-pyrazol-4-yl)-4-[2-(2-phenyl-1H-benzimidazol-5-yl)imidazo[1,2-a]pyridin-3-yl]pyrimidin-2-amine]
16 | 6.30 to 7.00 | COc1ccc(C(F)(F)F)cc1Nc1nccc(-c2c(-c3ccc4nc(Cc5ccccc5)[nH]c4c3)nc3ccccn23)n1 [Example 45, 4-[2-(2-benzyl-1H-benzimidazol-6-yl)imidazo[1,2-a]pyridin-3-yl]-N-[2-methoxy-5-(trifluoromethyl)phenyl]pyrimidin-2-amine]
17 | 7.30 to 8.00 | CN(C)Cc1ccc(Nc2nccc(-c3c(-c4ccc5nc(Cc6ccccc6C(F)(F)F)[nH]c5c4)nc4sccn34)n2)cc1 [Example 46, N-{4-[(dimethylamino)methyl]phenyl}-4-(6-{2-[2-(trifluoromethyl)benzyl]-1H-benzimidazol-6-yl}imidazo[2,1-b][1,3]thiazol-5-yl)pyrimidin-2-amine]
18 | 7.30 to 8.00 | COc1cc(NCC(C)(C)O)ccc1Nc1nccc(-c2c(-c3ccc4[nH]c(Cc5ccccc5)nc4c3)nc3ccccn23)n1 [Example 47, 1-{[4-({4-[2-(2-benzyl-1H-benzimidazol-5-yl)imidazo[1,2-a]pyridin-3-yl]pyrimidin-2-yl}amino)-3-methoxyphenyl]amino}-2-methylpropan-2-ol]
19 | 7.30 to 8.00 | COc1cc(N(C)CCO)ccc1Nc1nccc(-c2c(-c3ccc4nc(Cc5ccccc5)[nH]c4c3)nc3ccccn23)n1 [Example 48, 2-[[4-({4-[2-(2-benzyl-1H-benzimidazol-6-yl)imidazo[1,2-a]pyridin-3-yl]pyrimidin-2-yl}amino)-3-methoxyphenyl](methyl)amino]ethanol]
20 | 7.30 to 8.00 | COc1cc(NCC(=O)O)ccc1Nc1nccc(-c2c(-c3ccc4[nH]c(Cc5ccccc5)nc4c3)nc3ccccn23)n1 [Example 49, N-[4-({4-[2-(2-benzyl-1H-benzimidazol-5-yl)imidazo[1,2-a]pyridin-3-yl]pyrimidin-2-yl}amino)-3-methoxyphenyl]glycine]
21 | 7.30 to 8.00 | COc1ccc(CN(C)CCO)cc1Nc1nccc(-c2c(-c3ccc4nc(Cc5ccccc5)[nH]c4c3)nc3ccccn23)n1 [Example 50, 2-[[3-({4-[2-(2-benzyl-1H-benzimidazol-6-yl)imidazo[1,2-a]pyridin-3-yl]pyrimidin-2-yl}amino)-4-methoxybenzyl](methyl)amino]ethanol]
22 | > 8.00 | CN(C)CC(=O)Nc1cccc(Nc2nccc(-c3c(-c4ccc5nc(Cc6ccccc6)[nH]c5c4)nc4ccccn34)n2)c1 [Example 51, N^1-[3-({4-[2-(2-benzyl-1H-benzimidazol-6-yl)imidazo[1,2-a]pyridin-3-yl]pyrimidin-2-yl}amino)phenyl]-N^2,N^2-dimethylglycinamide]
23 | > 8.00 | COc1cc(N2CCC(N(C)C)CC2)ccc1Nc1nccc(-c2c(-c3ccc4nc(Cc5ccccc5C(F)(F)F)[nH]c4c3)nc3sccn23)n1 [Example 52, N-{4-[4-(dimethylamino)piperidin-1-yl]-2-methoxyphenyl}-4-(6-{2-[2-(trifluoromethyl)benzyl]-1H-benzimidazol-6-yl}imidazo[2,1-b][1,3]thiazol-5-yl)pyrimidin-2-amine]
24 | > 8.00 | COc1ccc(NC(=O)CN(C)C)cc1Nc1nccc(-c2c(-c3ccc4nc(Cc5ccccc5)[nH]c4c3)nc3ccccn23)n1 [Example 53, N^1-[3-({4-[2-(2-benzyl-1H-benzimidazol-6-yl)imidazo[1,2-a]pyridin-3-yl]pyrimidin-2-yl}amino)-4-methoxyphenyl]-N^2,N^2-dimethylglycinamide]
25 | > 8.00 | COc1cc(N2CCC(N(C)C)CC2)ccc1Nc1nccc(-c2c(-c3ccc4nc(Cc5ccccc5Cl)[nH]c4c3)nc3sccn23)n1 [Example 54, 4-{6-[2-(2-chlorobenzyl)-1H-benzimidazol-6-yl]imidazo[2,1-b][1,3]thiazol-5-yl}-N-{4-[4-(dimethylamino)piperidin-1-yl]-2-methoxyphenyl}pyrimidin-2-amine]
